Measurements reported in ChEMBL document CHEMBL1154622, “Structure-guided design of potent and selective pyrimidylpyrrole inhibitors of extracellular signal-regulated kinase (ERK) using conformational control” (J Med Chem, 2009).
≈ marks a conversion by molar mass, not a printed value.

Key:
[1] = molecular target: Serine/threonine-protein kinase pim-2 (Homo sapiens) (UniProt Q9P1W9); assay: Inhibition of PIM2 at 1 uM
[2] = molecular target: Cyclin-dependent kinase 2 (Homo sapiens, UniProt P24941)
[3] = Solubility in pH 7.4 buffer; assay type: physicochemical
[4] = molecular target: Ribosomal protein S6 kinase beta-1 (Homo sapiens) (UniProt P23443); assay: Inhibition of P70S6K at 2 uM
Chain of Ribosomal protein S6 kinase beta-1 (Homo sapiens) (P23443 whole entry, looked up): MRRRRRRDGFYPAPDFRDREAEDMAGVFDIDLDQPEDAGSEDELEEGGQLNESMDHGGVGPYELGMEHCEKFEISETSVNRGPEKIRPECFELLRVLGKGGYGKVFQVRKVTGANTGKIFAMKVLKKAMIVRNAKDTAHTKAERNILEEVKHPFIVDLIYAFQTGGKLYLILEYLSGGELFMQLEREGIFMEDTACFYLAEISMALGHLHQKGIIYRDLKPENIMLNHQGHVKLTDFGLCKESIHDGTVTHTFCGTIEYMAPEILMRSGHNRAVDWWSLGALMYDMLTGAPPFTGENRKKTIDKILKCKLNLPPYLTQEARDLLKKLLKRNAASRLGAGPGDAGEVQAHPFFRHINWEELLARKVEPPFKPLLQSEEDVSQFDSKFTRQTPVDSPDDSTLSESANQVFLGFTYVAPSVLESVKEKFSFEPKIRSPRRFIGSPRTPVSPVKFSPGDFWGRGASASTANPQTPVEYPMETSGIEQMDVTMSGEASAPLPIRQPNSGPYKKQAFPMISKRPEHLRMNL

Chain of Serine/threonine-protein kinase pim-2 (Homo sapiens) (Q9P1W9 whole entry, looked up): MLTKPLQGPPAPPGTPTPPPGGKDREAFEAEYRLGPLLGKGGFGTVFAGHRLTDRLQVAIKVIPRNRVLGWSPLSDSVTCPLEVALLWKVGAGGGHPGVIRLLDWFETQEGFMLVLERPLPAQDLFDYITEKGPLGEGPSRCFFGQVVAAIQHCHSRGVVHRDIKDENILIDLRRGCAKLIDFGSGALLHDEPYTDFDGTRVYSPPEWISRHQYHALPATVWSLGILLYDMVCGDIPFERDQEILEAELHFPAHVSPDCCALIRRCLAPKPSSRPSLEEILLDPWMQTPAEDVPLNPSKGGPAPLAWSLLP

Cc1cnc(Nc2ccc(F)cc2Cl)nc1-c1c[nH]c(C(=O)N[C@H](CO)c2cccc(Cl)c2)c1
inhibition [1]: 3% | Ki [2]: 852 nM | solubility [3]: 10 µM (≈ 5 µg/mL) | inhibition [4]: 18%
